Test results as given in patent US10618903B2, “Heteroaryl substituted aminopyridine compounds” (BRISTOL-MYERS SQUIBB COMPANY, priority 2015, dated 2020).

Legend:
[1] = tested on: IL-6 levels in human whole blood stimulated with a TLR2 agonist; assay: IRAK4 Whole Blood Assay (lipoteichoic acid/TLR2-stimulated IL-6); assay type: cell-based; conditions: lipoteichoic acid 10 μg/mL, IL-6 readout
Experimental: Human whole blood containing the anti-coagulant ACD-A was plated in 384-well plate (25 μL/well) and incubated with compounds for 60 minutes at 37° C. in a 5% CO2 incubator. The blood was stimulated with a TLR2 agonist, 10 μg/mL final concentration of lipoteichoic acid (Invivogen, San Diego, Calif.) in 25 μL RPMI (Gibco) for 5 hours in a 5% CO2 incubator. At the end of the incubation, plates were centrifuged at 2300 rpm for 5 minutes. Supernatants were harvested and analyzed for IL-6 levels by Flow Cytometry beads assay (BD Biosciences, San Jose, Calif.).

[2] = target: IRAK4 (Homo sapiens (Human), UniProt Q9NWZ3); assay: IRAK4 Inhibition Assay; assay type: biochemical; conditions: ATP 500 μM; IRAK4 0.6 nM
Experimental: The assays were performed in U-bottom 384-well plates. The final assay volume was 30 μL prepared from 15 μL additions of enzyme and substrates (fluoresceinated peptide and ATP) and test compounds in assay buffer (20 mM HEPES pH 7.2, 10 mM MgCl2, 0.015% Brij 35 and 4 mM DTT). The reaction was initiated by the combination of IRAK4 with substrates and test compounds. The reaction mixture was incubated at room temperature for 60 min. and terminated by adding 45 μL of 35 mM EDTA to each sample. The reaction mixture was analyzed on the Caliper LABCHIP® 3000 (Caliper, Hopkinton, Mass.) by electrophoretic separation of the fluorescent substrate and phosphorylated product. Inhibition data were calculated by comparison to no enzyme control reactions for 100% inhibition and vehicle-only reactions for 0% inhibition. The final concentrations of reagents in the assays are ATP, 500 μM; FL-IPTSPITTTYFFFKKK peptide 1.5 μM; IRAK4, 0.6 nM; and DMSO, 1.6%.

Chain of IRAK4 (Q9NWZ3 whole entry): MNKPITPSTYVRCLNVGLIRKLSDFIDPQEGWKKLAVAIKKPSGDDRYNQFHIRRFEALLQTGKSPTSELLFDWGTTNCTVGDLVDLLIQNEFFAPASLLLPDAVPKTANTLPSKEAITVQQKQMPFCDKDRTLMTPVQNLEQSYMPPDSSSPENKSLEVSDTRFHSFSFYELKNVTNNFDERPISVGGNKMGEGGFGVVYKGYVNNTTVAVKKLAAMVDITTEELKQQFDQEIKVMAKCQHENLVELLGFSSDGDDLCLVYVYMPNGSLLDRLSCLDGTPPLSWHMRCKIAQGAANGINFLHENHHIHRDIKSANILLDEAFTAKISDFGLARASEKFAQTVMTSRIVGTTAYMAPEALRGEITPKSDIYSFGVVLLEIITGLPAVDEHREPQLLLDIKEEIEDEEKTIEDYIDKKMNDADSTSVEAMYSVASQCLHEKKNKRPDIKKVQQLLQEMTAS

Structure (SMILES)	EC50 ([1]; Homo sapiens) [nM]	IC50 [2] [nM]	EC50 [1] [nM]
CC(C)(O)[C@H](F)CNC(=O)c1cnc(-c2cnn3cc(C#N)cnc23)cc1Nc1ccc(C(N)=O)cc1 [Example 112, (R)-4-((4-carbamoylphenyl)amino)-6-(6-cyanopyrazolo[1,5-a]pyrimidin-3-yl)-N-(2-fluoro-3-hydroxy-3-methylbutyl)nicotinamide]	820	–	–
C[C@@H](CO)Nc1cc(-c2cnc3cccnn23)ncc1C(=O)NC[C@@H](F)C(C)(C)O [Example 136, N—((R)-2-fluoro-3-hydroxy-3-methylbutyl)-4-(((S)-1-hydroxypropan-2-yl)amino)-6-(imidazo[1,2-b]pyridazin-3-yl)nicotinamide]	–	19	–
C[C@@H](CO)Nc1cc(-c2cnc3cccnn23)ncc1C(=O)NCCC(C)(C)O [Example 137, (S)—N-(3-hydroxy-3-methylbutyl)-4-((1-hydroxypropan-2-yl)amino)-6-(imidazo[1,2-b]pyridazin-3-yl)nicotinamide]	–	75	–
CC(C)(O)CNc1cc(-c2cnc3cccnn23)ncc1C(=O)NC[C@@H](F)C(C)(C)O [Example 138, (R)—N-(2-fluoro-3-hydroxy-3-methylbutyl)-4-((2-hydroxy-2-methylpropyl)amino)-6-(imidazo[1,2-b]pyridazin-3-yl)nicotinamide]	–	62	–
COc1ccc2ncc(-c3cc(NC(C)C)c(C(=O)NC[C@@H](F)C(C)(C)O)cn3)n2n1 [Example 149, (R)—N-(2-fluoro-3-hydroxy-3-methylbutyl)-4-(isopropylamino)-6-(6-methoxyimidazo[1,2-b]pyridazin-3-yl) nicotinamide]	–	18	–
CC(C)Nc1cc(-c2cnc3ccc(N4CC[C@@H](O)C4)nn23)ncc1C(=O)NC[C@@H](F)C(C)(C)O [Example 152, N—((R)-2-fluoro-3-hydroxy-3-methylbutyl)-6-(6-((R)-3-hydroxypyrrolidin-1-yl)imidazo[1,2-b]pyridazin-3-yl)-4-(isopropylamino)nicotinamide]	–	29	–
COc1cnn2c(-c3cc(NC(C)C)c(C(=O)NC[C@@H](F)C(C)(C)O)cn3)cnc2c1 [Example 153, (R)—N-(2-fluoro-3-hydroxy-3-methylbutyl)-4-(isopropylamino)-6-(7-methoxyimidazo[1,2-b]pyridazin-3-yl)nicotinamide]	–	13	–
COc1cnn2c(-c3cc(NC4COC4)c(C(=O)NC[C@@H](F)C(C)(C)O)cn3)cnc2c1 [Example 154, (R)—N-(2-fluoro-3-hydroxy-3-methylbutyl)-6-(7-methoxyimidazo[1,2-b]pyridazin-3-yl)-4-(oxetan-3-ylamino)nicotinamide]	–	16	–
CC(C)Nc1cc(-c2cnc(-c3cccc(C#N)c3)o2)ncc1C(=O)NC[C@@H](F)C(C)(C)O [Example 155, (R)-6-(2-(3-cyanophenyl)oxazol-5-yl)-N-(2-fluoro-3-hydroxy-3-methylbutyl)-4-(isopropylamino)nicotinamide]	–	55	–
CC(C)(C)Nc1cc(-c2cnc3cc(C#N)cnn23)ncc1C(=O)NC[C@@H](F)C(C)(C)O [Example 187, (R)-4-(tert-butylamino)-6-(7-cyanoimidazo[1,2-b]pyridazin-3-yl)-N-(2-fluoro-3-hydroxy-3-methylbutyl)nicotinamide]	200	–	–
COC(C)(C)[C@H]1CC[C@H](NC(=O)c2cnc(-c3cnc4cc(Cl)cnn34)cc2NC2COC2)CC1 [Example 191, 6-(7-chloroimidazo[1,2-b]pyridazin-3-yl)-N-((1r,4r)-4-(2-methoxypropan-2-yl)cyclohexyl)-4-(oxetan-3-ylamino)nicotinamide]	630	–	–
CC(C)(O)[C@H](F)CNC(=O)c1cnc(-c2cnn3cc(C#N)cnc23)cc1Nc1ccn(CC(F)F)c1 [Example 225, (R)-6-(6-cyanopyrazolo[1,5-a]pyrimidin-3-yl)-4-((1-(2,2-difluoroethyl)-1H-pyrrol-3-yl)amino)-N-(2-fluoro-3-hydroxy-3-methylbutyl)nicotinamide]	80	–	–
CC(C)(O)[C@H](F)CNC(=O)c1cnc(-c2cnn3cc(Cl)cnc23)cc1Nc1ccn(CC(F)F)c1 [Example 228, (R)-6-(6-chloropyrazolo[1,5-a]pyrimidin-3-yl)-4-((1-(2,2-difluoroethyl)-1H-pyrrol-3-yl)amino)-N-(2-fluoro-3-hydroxy-3-methylbutyl)nicotinamide]	250	–	–

Continued by falling IC50 [2], values first:

EC50 ([1]; Homo sapiens) [nM]	IC50 [2] [nM]	EC50 [1] [nM]	Structure (SMILES)
–	13	680	CC(C)(O)[C@H](F)CNC(=O)c1cnc(-c2cnn3cc(Cl)cnc23)cc1NC1CCCOC1 (single isomer, unassigned) [Example 4]
–	12	–	CC(C)Nc1cc(-c2cnc3ccc(N)nn23)ncc1C(=O)NC[C@@H](F)C(C)(C)O [Example 150, (R)-6-(6-aminoimidazo[1,2-b]pyridazin-3-yl)-N-(2-fluoro-3-hydroxy-3-methylbutyl)-4-(isopropylamino)nicotinamide]
–	11	–	CC(C)Nc1cc(-c2cnc3ccc(NCC(C)(C)O)nn23)ncc1C(=O)NC[C@@H](F)C(C)(C)O [Example 151, (R)—N-(2-fluoro-3-hydroxy-3-methylbutyl)-6-(6-((2-hydroxy-2-methylpropyl)amino)imidazo[1,2-b]pyridazin-3-yl)-4-(isopropylamino)nicotinamide]
–	10	370	CC(C)(O)[C@H](F)CNC(=O)c1cnc(-c2cnn3cc(C#N)cnc23)cc1NC1CCCOC1 (single isomer, unassigned) [Example 94]
1150	8	–	CC(C)(O)[C@H](F)CNC(=O)c1cnc(-c2cnn3cc(Cl)cnc23)cc1NC1COCC1(F)F (single isomer, unassigned) [Example 18]
4450	7	–	COC1CC(Nc2cc(-c3cnn4cc(Cl)cnc34)ncc2C(=O)NC[C@@H](F)C(C)(C)O)CC1(F)F (single isomer, unassigned) [Example 13]
2530	7	–	CC(C)Nc1cc(-c2cnn3cc(Cl)cnc23)ncc1C(=O)NCCC(C)(C)F [Example 20, 6-(6-chloropyrazolo[1,5-a]pyrimidin-3-yl)-N-(3-fluoro-3-methylbutyl)-4-(isopropylamino)nicotinamide]
–	7	2530	CC(C)Nc1cc(-c2cnc3cccnn23)ncc1C(=O)NC[C@@H](F)C(C)(C)O [Example 21, (R)—N-(2-fluoro-3-hydroxy-3-methylbutyl)-6-(imidazo[1,2-b]pyridazin-3-yl)-4-(isopropylamino)nicotinamide]
380	6	–	CC(C)(O)[C@H](F)CNC(=O)c1cnc(-c2cnn3cc(Cl)cnc23)cc1NC1CCCOC1 (single isomer, unassigned) [Example 3]
–	6	1090	CC(C)OC1CC(Nc2cc(-c3cnn4cc(Cl)cnc34)ncc2C(=O)NC[C@@H](F)C(C)(C)O)CC1(F)F (single isomer, unassigned) [Example 16]
–	6	1160	CC(C)(O)[C@H](F)CNC(=O)c1cnc(-c2cnn3cc(C#N)cnc23)cc1NC1CCCOC1 (single isomer, unassigned) [Example 95]
–	6	–	CC(C)(O)[C@H](F)CNC(=O)c1cnc(-c2cnc3ccc(NCCO)nn23)cc1NC1COC1 [Example 140, (R)—N-(2-fluoro-3-hydroxy-3-methylbutyl)-6-(6-((2-hydroxyethyl)amino)imidazo[1,2-b]pyridazin-3-yl)-4-(oxetan-3-ylamino)nicotinamide]
540	3	–	CC(C)Nc1cc(-c2cnc3cc(C#N)cnn23)ncc1C(=O)NCC(F)C1CC(C)OC(C)C1 (single isomer, unassigned) [Example 176, 6-(7-cyanoimidazo[1,2-b]pyridazin-3-yl)-N-(2-(2,6-dimethyltetrahydro-2H-pyran-4-yl)-2-fluoroethyl)-4-(isopropylamino)nicotinamide]
–	3	–	CC(C)Nc1cc(-c2cnc3ccc(NCCO)nn23)ncc1C(=O)NC[C@@H](F)C(C)(C)O [Example 139, (R)—N-(2-fluoro-3-hydroxy-3-methylbutyl)-6-(6-((2-hydroxyethyl)amino)imidazo[1,2-b]pyridazin-3-yl)-4-(isopropylamino)nicotinamide]
3170	2	–	CCC(C)Nc1cc(-c2cnn3cc(Cl)cnc23)ncc1C(=O)NC[C@@H](F)C(C)(C)O (stereo in doubt) [Example 69, 4-(((R)-sec-butyl)amino)-6-(6-chloropyrazolo[1,5-a]pyrimidin-3-yl)-N—((R)-2-fluoro-3-hydroxy-3-methylbutyl)nicotinamide]
570	2	–	CC(C)(CO)Nc1cc(-c2cnn3cc(Cl)cnc23)ncc1C(=O)NC[C@@H](F)C(C)(C)O [Example 7, (R)-6-(6-chloropyrazolo[1,5-a]pyrimidin-3-yl)-N-(2-fluoro-3-hydroxy-3-methylbutyl)-4-((1-hydroxy-2-methylpropan-2-yl)amino)nicotinamide]
